The source made the active and inactive calls. The rule behind the calls is not given here.
Biological target: HIV-1 integrase / human LEDGF/p75 complex
Experiment: blockers of LEDGF/p75-dependent integrase activity – biochemical, TR-FRET, dose response (AID 1053172)
Conditions: TR-FRET integrase-LEDGF/p75 DNA integration

For N#Cc1c(NC(=O)CSc2ncnc3sccc23)oc(-c2ccco2)c1-c1ccco1, the IC50 was “inactive”.

In the case of N#Cc1c(SCC(=O)Nc2nccs2)sc2c(O)cc(=O)[nH]c12, the IC50 is reported as 8630 nM.

Cc1ccc(NC(=O)CN2C(=O)N/C(=C/c3ccco3)C2=O)cc1 was tested, and the IC50 was > 36500 nM (inactive).

Work on O=C(NN1C(=O)/C(=C/C=C/c2ccco2)SC1=S)c1ccccc1O yielded an IC50 of 1850 nM.

In the case of Cc1ccc(/C=C/C(=O)Nc2ccc([N+](=O)[O-])c(NC(=O)/C=C/c3ccc(C)o3)c2)o1, the IC50 is reported as “inactive”.

For c1coc(-c2ccc3nncn3c2)c1, the IC50 was 1180 nM.

Compound c1coc(-c2nnc(-c3ccco3)nn2)c1 has an IC50 of 1750 nM.

For CC1=CC(C)(C)N2C(=O)C(=Nc3ccc(O)cc3)c3cccc1c32, the IC50 was > 12200 nM (inactive).

Compound Oc1ccc(/C=N/NC(=S)Nc2cccnc2)cc1O has an IC50 of 4500 nM.

Work on O=C(CCN1CCN(c2ccccc2)CC1)N/N=C/c1ccc(O)c(O)c1O yielded an IC50 of 1020 nM.

For O=S(=O)(O)c1ccc(O)c2cc(Nc3ccccc3)ccc12, the IC50 was 723 nM.

Cc1cc(=O)n2[nH]c(-c3ccsc3-n3c(C)ccc3C)cc2n1 was tested, and the IC50 was “inactive”.

Cc1sc2nc(SCC(=O)c3ccc(O)c(O)c3)n(C)c(=O)c2c1C gave an IC50 of 3630 nM.

O=C(NN1C(=O)/C(=C/c2ccc(O)c(O)c2)SC1=S)c1ccccc1 gave an IC50 of 1800 nM.

O=C(O)c1cccc2cccc(-c3c4ccc(=O)c(O)c-4oc4c(O)c(O)ccc34)c12 gave an IC50 of 369 nM.

Compound O=Cc1ccc2oc3nc4n(c(=O)c3c(=O)c2c1)CCCS4 has an IC50 of 1810 nM.

Compound O=C(NCCCO)c1ccc2nc(-c3ccco3)c(-c3ccco3)nc2c1 has an IC50 of 2850 nM.

With O=C(CSc1nc2ccccc2o1)N/N=C/c1ccc(O)c(O)c1 the IC50 was 1930 nM.

Compound C=C1c2cccc(O)c2C(O)=C2C(=O)[C@]3(O)C(O)=C(C(N)=O)C(=O)[C@@H](N(C)C)[C@@H]3[C@@H](O)[C@H]12 has an IC50 of 2720 nM.

In the case of Cc1ccc(N=C2NC(=O)/C(=C/C=C/c3ccco3)S2)cc1C, the IC50 is reported as 7350 nM.

For O=C(Cc1cnn(-c2ccccc2)c1)c1ccc(O)c(O)c1O, the IC50 was > 36500 nM (inactive).

COc1ccc(NC(=O)CSc2sc3c(O)cc(=O)[nH]c3c2C#N)c(OC)c1 was tested, and the IC50 was “inactive”.

Oc1ccc(/C=N/N=C/c2ccc(O)c(O)c2)cc1O gave an IC50 of 191 nM.

Cc1cc(C(=O)N/N=C/c2ccc(O)c([N+](=O)[O-])c2)c(C)n1-c1ccc(F)cc1 was tested, and the IC50 was “inactive”.

With O=c1[nH]c2cc3c(cc2cc1CN(Cc1cccnc1)Cc1nnnn1Cc1ccco1)OCCO3 the IC50 was “inactive”.

O=c1cc2c(=O)oc3cc(O)c(O)oc3c2c(O)c1O showed an IC50 of 244 nM.

C=CC1=C(C(=O)O)N2C(=O)[C@@H](NC(=O)/C(=N\OCC(=O)O)c3csc(N)n3)[C@H]2SC1 was tested, and the IC50 was 2890 nM.

NC1=NC(=O)/C(=C\c2ccco2)S1 gave an IC50 of 3990 nM.

O=C1S/C(=C\C=C\c2ccco2)C(=O)N1c1ccc(O)cc1 was tested, and the IC50 was 9560 nM.

CC(=O)Nc1ccc(C(=O)/C=C/c2ccco2)cc1 showed an IC50 of 9780 nM.

Compound C=C(C)C(=O)Nc1cccc(C2=NOC3(C2)C[C@@H](C(N)=O)N(C(=O)C2(C)CC2)C3)c1 (stereo partly specified) has an IC50 of 2390 nM.

In the case of N#C/C(=C\c1ccc(O)c(O)c1)C(=O)Nc1cccc2ncccc12, the IC50 is reported as 1070 nM.

For Cc1cc(/C=C2\C(=O)NC(=O)N(c3ccccc3F)C2=O)c(C)n1-c1cc(C(=O)O)cc(C(=O)O)c1, the IC50 was 815 nM.

Oc1ccc(NCc2ccccc2OCc2ccccc2)cc1 was tested, and the IC50 was > 36500 nM (inactive).

Cn1c(N)c(C(=O)COC(=O)c2cc(-c3ccco3)nc3ccccc23)c(=O)n(C)c1=O showed an IC50 of 2570 nM.

In the case of O=C1/C(=C\c2ccc(O)c(O)c2)C(c2ccccc2)=NN1c1ccccc1, the IC50 is reported as “inactive”.

In the case of CC(=O)c1ccc2c(c1)C1C=CCC1C(C(=O)O)N2 (stereo unspecified), the IC50 is reported as 575 nM.

O=C1NC(=Nc2ccc(O)cc2)S/C1=C\C=C\c1ccco1 was tested, and the IC50 was 4080 nM.

Compound Cc1ccc(N2C(=O)NC(=O)/C(=C/c3ccoc3)C2=O)cc1 has an IC50 of 2000 nM.

O=C(O)C1Nc2c(O)cccc2C2C=CCC12 (stereo unspecified) gave an IC50 of 754 nM.

O=C(O)c1cccc(-n2cccc2/C=C2/NC(=O)N(c3ccc(Cl)cc3)C2=O)c1 was tested, and the IC50 was 794 nM.

In the case of N#C/C(=C\c1cc(O)c(O)c(O)c1)C(N)=O, the IC50 is reported as 9600 nM.

CCOC(=O)c1cc2c(=Cc3ccc(N(C)C)cc3)c3ccccc3n2[n+]1C was tested, and the IC50 was “inactive”.

With CN=c1scc(C)n1/N=C/c1ccc(O)c(O)c1O the IC50 was 4740 nM.

CCN=c1scc(C)n1/N=C/c1ccc(O)c(O)c1O was tested, and the IC50 was 5610 nM.

With Brc1ccc(-c2nn3c(-c4ccco4)nnc3s2)o1 the IC50 was “inactive”.

O=C1Nc2ccccc2/C1=N\N=C\c1ccc(O)c(O)c1 showed an IC50 of 696 nM.

For C=C(C)C(=O)Nc1cccc(C2=NOC3(C2)C[C@@H](C(N)=O)N(C(=O)/C=C/C=C/C)C3)c1 (stereo partly specified), the IC50 was 3250 nM.

For CC1(C)OC(C)(C)/C(=C/Nc2ccc(O)cc2)C1=O, the IC50 was “inactive”.

Compound Nc1ccc2nc3c(=O)[nH]c(=S)[nH]c3nc2c1 has an IC50 of 1360 nM.

O=c1cc(-c2ccc(O)c(O)c2)oc2c(C3O[C@H](CO)[C@@H](O)[C@H](O)[C@H]3O)c(O)cc(O)c12 (stereo partly specified) was tested, and the IC50 was 1260 nM.

For O=C1CCCC(O)=C1N=Nc1ccc(C(=O)O)cc1, the IC50 was 2410 nM.

O=C(CCCN1C(=O)/C(=C/c2ccco2)SC1=S)Nc1ccccc1C(=O)O showed an IC50 of 8370 nM.

O=C(O)COc1ccc2c(c1)O/C(=C\c1ccco1)C2=O showed an IC50 of 1610 nM.

With Oc1cccc(/C=N/NC(=S)Nc2cccnc2)c1O the IC50 was “inactive”.

For CC(=O)Nc1ccc2c(COC(=O)CC3Sc4ccccc4NC3=O)cc(=O)oc2c1 (stereo unspecified), the IC50 was > 12200 nM (inactive).

O=C1NC(=S)NC(=O)C1=Cc1cccn1-c1ccc(O)cc1 showed an IC50 of 2210 nM.

NS(=O)(=O)c1ccc(N/N=C/c2ccc(O)c(O)c2O)c([N+](=O)[O-])c1 showed an IC50 of 1240 nM.

For CCOc1ccc(NC(=O)CN(C)C(=O)c2cc3c(s2)CCC3)cc1OCC, the IC50 was 9570 nM.

For Nc1c(C(=O)NCC2CCCO2)sc2nc3c(c(-c4ccco4)c12)CC/C3=C\c1ccco1 (stereo unspecified), the IC50 was 1350 nM.

For O=C1C(=Cc2ccco2)CCC1=Cc1ccco1, the IC50 was 1920 nM.

Work on O=C(N/N=C/c1cccc(F)c1)c1cc(-c2ccco2)nc2ccccc12 yielded an IC50 of 3850 nM.

N/C(=N\N=C/c1ccc(-c2ccc(O)c(C(=O)O)c2)o1)N[N+](=O)[O-] gave an IC50 of 1550 nM.

Compound O=c1c(O)c(-c2ccc(O)c(O)c2)oc2cc(O)cc(O)c12 has an IC50 of 498 nM.

In the case of Oc1ccc(NCc2cccc(OCc3ccccc3)c2)cc1, the IC50 is reported as > 36500 nM (inactive).

CN(CCC#N)C(=O)COC(=O)c1c2c(nc3ccccc13)/C(=C\c1ccco1)CC2 showed an IC50 of 2560 nM.

With S=c1[nH]nc(-c2ccco2)n1/N=C/C=C/c1ccco1 the IC50 was “inactive”.

In the case of CC1=NN(c2cccc(C(=O)O)c2)C(=O)/C1=C\C=C\c1ccco1, the IC50 is reported as 734 nM.

CCCNC1=C(C)C(=O)C2=C(C1=O)C(COC(N)=O)[C@]1(OC)C3NC3CN21 (stereo partly specified) was tested, and the IC50 was “inactive”.

With COc1cc(C)cc(C(=O)O)c1C1=C(O)c2cccc(O)c2C(=O)C1=O the IC50 was 4870 nM.

Work on O=C(O)c1ccc(-n2c(-c3cc(-c4ccco4)[nH]n3)n[nH]c2=S)cc1 yielded an IC50 of 7320 nM.

Work on Nc1ccc2cc3ccc(N)cc3nc2c1 yielded an IC50 of 4460 nM.

For C/C(=N/NC(=O)c1cc(O)c(O)c(O)c1)c1ccc([N+](=O)[O-])cc1, the IC50 was 2120 nM.

In the case of O=c1cc(-c2ccc(O)cc2)oc2cc(O)c(C3OC(CO)C(O)C(O)C3O)c(O)c12 (stereo unspecified), the IC50 is reported as 5960 nM.

In the case of O=C(Nc1nc(-c2ccco2)c(-c2ccco2)s1)C1CC(=O)N(c2ccc3c(c2)OCCO3)C1 (stereo unspecified), the IC50 is reported as “inactive”.

With O=C(Cn1cnc([N+](=O)[O-])n1)c1ccc(O)c(O)c1 the IC50 was “inactive”.

Work on CC(C)(CS(=O)(=O)[O-])NC(=O)CC[N+](C)(C)CCO yielded an IC50 of 3060 nM.

For COc1ccc(/C=N\NC(=O)c2cc(O)c(O)c(O)c2)cc1CN1CCN(c2ccc(F)cc2)CC1, the IC50 was > 36500 nM (inactive).

For O=c1c(-c2c(O)cc(O)c3c(=O)cc(-c4ccc(O)cc4)oc23)c(-c2ccc(O)cc2)oc2cc(O)cc(O)c12, the IC50 was 4230 nM.

In the case of CN(C)c1ccc2nc3ccc(=O)cc-3sc2c1, the IC50 is reported as > 36500 nM (inactive).

With Cc1ccc(-c2csc(NS(=O)(=O)c3cccc(F)c3)n2)o1 the IC50 was “inactive”.

With O=[N+]([O-])c1cc(Br)c(O)c(C=Nc2ccc(N3CCOCC3)cc2)c1 the IC50 was “inactive”.

For COP(=O)(OC)c1ccc(NCc2cc(O)ccc2O)cc1, the IC50 was “inactive”.

Compound O=C(O)c1ccc2nc(-c3ccco3)c(-c3ccco3)nc2c1 has an IC50 of 1920 nM.

COc1ccccc1OCC(=O)N/N=C/C=C/c1ccc([N+](=O)[O-])o1 was tested, and the IC50 was > 36500 nM (inactive).

N#C/C(=C\c1ccc(O)c(O)c1)C(=O)c1ccc(O)c(O)c1 gave an IC50 of 79.5 nM.

C=C(C)C(=O)Nc1cccc(C2=NOC3(C2)C[C@@H](C(N)=O)N(C(=O)/C(C)=C/C)C3)c1 (stereo partly specified) showed an IC50 of 3250 nM.

For COc1ccc(/C=C/C(=O)N2CCCc3ccccc32)cc1, the IC50 was > 36600 nM (inactive).

Work on CC1(C)OC(=O)C(=Cc2ccc(-c3ccc(Cl)c(C(=O)O)c3)o2)C(=O)O1 yielded an IC50 of 7910 nM.

COc1cc(-c2cc(=O)c3c(O)c(OC)c(OC)c(O)c3o2)ccc1O was tested, and the IC50 was 4960 nM.

With O=C(N/N=C/c1cccnc1)c1cc(O)c(O)c(O)c1 the IC50 was “inactive”.

Cc1ccc(/C=C2/C(=O)c3ccc(C(=O)O)cc3C2=O)o1 gave an IC50 of 2280 nM.

In the case of O=C(O)CC(CCc1ccccc1)OC1OC(CO)C(O)C(O)C1O (stereo unspecified), the IC50 is reported as 620 nM.

COc1cc(/C=C(\C#N)C(=O)c2ccc(O)c(O)c2)cc(I)c1O gave an IC50 of 752 nM.

O=C(O)c1ccc(-n2cccc2/C=C2/NC(=O)N(c3cccc(Cl)c3)C2=O)cc1 showed an IC50 of 4250 nM.

C=C(C)C(=O)Nc1cccc(C2=NOC3(C2)C[C@H](C(N)=O)N(C(=O)/C=C/C)C3)c1 (stereo partly specified) gave an IC50 of 4720 nM.

For Oc1ccc(-c2cn3c(n2)SCC3)cc1O, the IC50 was 1480 nM.

With CN(C)[C@@H]1C(=O)C(C(N)=O)=C(O)[C@@]2(O)C(=O)C3=C(O)c4c(O)cccc4[C@@](C)(O)C3[C@H](O)C12 (stereo partly specified) the IC50 was “inactive”.

For COCCN(CCOC)Cc1c(O)ccc2c1O/C(=C\c1ccco1)C2=O, the IC50 was > 12200 nM (inactive).

In the case of Cc1cnc(C=NNC(N)=S)c2cccc(N)c12, the IC50 is reported as “inactive”.

With Cc1ccc(-c2nn(-c3ccccc3)cc2/C=C2\SC(=S)N(CCCCCC(=O)O)C2=O)o1 the IC50 was “inactive”.

For C(=C\c1ccco1)/c1ccc2ccccc2n1, the IC50 was > 36500 nM (inactive).

In the case of COC1=CC(=O)C(C2CC(=O)c3c(O)cc(O)cc3O2)=CC1=O (stereo unspecified), the IC50 is reported as > 36500 nM (inactive).

C=C(C)C(=O)Nc1cccc(C2=NOC3(C2)C[C@@H](C(N)=O)N(C(=O)C(=C)C)C3)c1 (stereo partly specified) showed an IC50 of 5920 nM.

With O=C1NC(=Nc2ccccc2)S/C1=C\C=C\c1ccco1 the IC50 was 4380 nM.

In the case of CN(C(=O)COC(=O)c1cc(-c2ccco2)nc2ccccc12)C1CCS(=O)(=O)C1 (stereo unspecified), the IC50 is reported as 7420 nM.

From PubChem BioAssay AID1053172 (The Scripps Research Institute Molecular Screening Center, 2014)
